Measurements taken from patent publication US20110059962A1, “TRANSCRIPTION FACTOR MODULATING COMPOUNDS AND METHODS OF USE THEREOF” (priority 2009, published 2011).

Experiments:
[1] = system: pET-15b supercoiled plasmid DNA; assay: Assay to detect direct DNA binding (UV fluorescence and agarose gel migration of plasmid DNA); conditions: 100 μg/mL; 100 ng pET-15b plasmid, 30 minutes at room temperature
ExsA = molecular target: T1, ExsA (Pseudomonas aeruginosa, UniProt P26993); assay: Inhibition of ExsA-DNA binding, cell-free chemiluminescence assay; set-up: species or system P. aeruginosa
T1 construct: made in house
T1 sequence (P26993 1-278): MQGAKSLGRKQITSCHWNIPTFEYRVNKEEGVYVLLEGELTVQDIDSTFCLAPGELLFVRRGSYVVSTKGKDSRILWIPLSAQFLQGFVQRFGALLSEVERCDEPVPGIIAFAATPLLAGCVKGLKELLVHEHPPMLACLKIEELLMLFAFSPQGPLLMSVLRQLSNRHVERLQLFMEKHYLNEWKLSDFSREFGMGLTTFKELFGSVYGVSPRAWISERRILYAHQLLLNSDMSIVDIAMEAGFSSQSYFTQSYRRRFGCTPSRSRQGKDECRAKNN

[2] = system: P. aeruginosa cytotoxicity toward J774 cells; assay: Inhibition of P. aeruginosa cytotoxicity toward J774 macrophage-like cells, whole cell LDH release assay (CytoTox 96); set-up: dose or concentration left out as unconfirmed; conditions: Pseudomonas aeruginosa, J774, read-out: % Cytotoxicity
SoxS = molecular target: T2, SoxS (Escherichia coli, UniProt P0A9E2); assay: Inhibition of SoxS-DNA binding, cell-free chemiluminescence assay; set-up: species or system E. coli
T2 construct: made in house; host or cells: E. coli
T2 sequence (P0A9E2 1-107): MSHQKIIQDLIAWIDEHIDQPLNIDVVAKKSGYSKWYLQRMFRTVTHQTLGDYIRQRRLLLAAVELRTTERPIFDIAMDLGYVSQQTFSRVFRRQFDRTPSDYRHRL

[3] = system: Y. pseudotuberculosis cytotoxicity toward J774 cells; assay: microbe, parasite or virus in culture; conditions: Yersinia pseudotuberculosis, J774, read-out: % Cytotoxicity
LcrF (VirF) = LcrF (VirF) (Yersinia pestis, UniProt P28808); assay: biochemical; format: binding, Y. pseudotuberculosis
SlyA = molecular target: T3, SlyA (Salmonella typhimurium, UniProt P40676); assay: Inhibition of SlyA-DNA binding, cell-free chemiluminescence assay (specificity); set-up: species or system S. typhimurium enterica serovar Typhimurium
T3 construct: made in house; host or cells: E. coli
T3 sequence (P40676 1-144): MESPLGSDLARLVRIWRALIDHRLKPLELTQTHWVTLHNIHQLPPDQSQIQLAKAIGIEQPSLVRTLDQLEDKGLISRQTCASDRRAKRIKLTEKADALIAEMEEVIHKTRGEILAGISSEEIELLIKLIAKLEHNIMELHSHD

LcrF (VirF), sequence (P28808 whole entry, looked up): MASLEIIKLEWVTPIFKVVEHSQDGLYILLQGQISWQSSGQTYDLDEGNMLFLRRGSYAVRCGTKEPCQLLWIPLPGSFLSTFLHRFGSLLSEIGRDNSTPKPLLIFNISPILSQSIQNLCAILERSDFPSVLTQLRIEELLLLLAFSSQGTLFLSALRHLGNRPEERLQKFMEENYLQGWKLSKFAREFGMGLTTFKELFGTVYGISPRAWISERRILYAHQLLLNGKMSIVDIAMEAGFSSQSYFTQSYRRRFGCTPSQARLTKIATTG

SMILES | fluorescence under UV light and DNA migration on agarose gel [1] | IC50 (ExsA) | activity [2] | IC50 (SoxS) | activity at 50 µg/mL [3] | IC50 (LcrF (VirF)) | IC50 (SlyA)
CCOc1ccc(-c2nc3ccc(-c4nc5ccc(N6CCN(C)CC6)cc5[nH]4)cc3[nH]2)cc1 [Hoechst 33342] | bright fluorescence under UV light and a faint smear on the gel | – | – | – | – | – | –
CSc1ccc(/C=C/C(=O)Nc2ccc(-c3nc4ccc(C#N)cc4n3O)cc2)cc1 [Compound D, (E)-N-[4-(6-Cyano-1-hydroxy-1H-benzoimidazol-2-yl)-phenyl]-3-(4-methylsulfanyl-phenyl)-acrylamide] | – | < 10 µM | 75 to 99% | 10 to 25 µM | 75 to 99% | 25 to 50 µM | –
CC(=O)c1ccc(/C=C/C(=O)Nc2ccc(-c3nc4c(CC(=O)O)cc([N+](=O)[O-])cc4n3O)cc2)cn1 [Compound V, (2-{4-[(E)-3-(6-Acetyl-pyridin-3-yl)-acryloylamino]-phenyl}-1-hydroxy-6-nitro-1H-benzoimidazol-4-yl)-acetic acid] | – | < 10 µM | < 75% | – | < 75% | < 10 µM | 25 to 50 µM
CC(=O)c1ccc(/C=C/C(=O)Nc2ccc(-c3nc4c(CC(=O)O)cc([N+](=O)[O-])cc4n3O)cc2)cc1 [Compound J, (2-{4-[(E)-3-(4-Acetyl-phenyl)-acryloylamino]-phenyl}-1-hydroxy-6-nitro-1H-benzoimidazol-4-yl)-acetic acid] | – | < 10 µM | < 75% | < 10 µM | < 75% | < 10 µM | 25 to 50 µM
